Measurements as given in US20180303777A1, “Hyaluronate Compositions” (Cypress Pharmaceuticals, Inc., priority 2007, published 2018).

Test system: eczema
Test: Treatment of eczema in a patient
Format: in vivo, human
Settings: topical to the most gravely affected areas, before the composition
Excerpt: A patient with eczema visited a pediatrician. […] The patient was prescribed desoximatasone for topical administration to the most gravely affected areas. […] Subsequently, the pediatrician provided the patient's parent with an amount of the exemplary composition as described in Example 3 in a suitable container-closure system, for daily administration to the patient.

SMILES: C[C@@H]1C[C@H]2[C@@H]3CCC4=CC(=O)C=C[C@]4(C)[C@@]3(F)[C@@H](O)C[C@]2(C)[C@H]1C(=O)CO [desoximatasone]
- results of topical treatment of eczema: not satisfactory
